Measured values as given in PMC6925188, “PBRM1 acts as a p53 lysine-acetylation reader to suppress renal tumor growth” (Nature Communications, 2019).
Where no end group is shown, it is not given here. The star is where a group is joined. Biotin = O=C1N[C@H]2[C@H](CS[C@H]2CCCCC(=O)*)N1

Key:
PBRM1-p53 interaction = test: Co-immunoprecipitation of Flag-PBRM1 and Myc-p53 (anti-Flag M2) in H1299 cells; type: cell-based
Description: Fig. 1 PBRM1 and p53 display a physical association that is enhanced after DNA damage. a U2OS cells (left) and HEK293T cells (right) were transfected with vector or Flag-PBRM1 and harvested for immunoprecipitation with Flag-M2 beads and elution with 3X Flag peptide. […] Lysates were subjected to immunoprecipitation with Flag-M2 beads. […] Lysates were immunoprecipitated with p53 antibody. The bound PBRM1 and p53 were examined by immunoblots. Source data are provided as a Source Data file.
For anti-Flag immunoprecipitation, cell pellets harvested from one 10 cm culture dish were resuspended in 500 µl hypotonic buffer (10 mM Tris-HCl, pH 8.0, 1.5 mM MgCl2, 10 mM KCl) with protease and phosphatase inhibitors, 2 μM TSA and 10 mM NAM, and samples were incubated on ice for 15 min. Twenty-five microliters of Triton X-100 was added and samples were vortexed for 10 s. After centrifuging for 30 s at 14,000 × g, supernatants were removed and pellets were resuspended in 100 µl hypertonic buffer (20 mM Tris-HCl pH 8.0, 420 mM KCl, 1.5 mM MgCl2, 20% (v/v) glycerol) with protease and phosphatase inhibitors, 2 μM TSA and 10 mM NAM and vortexed for 10 s. Pellets were incubated on ice for 40 min and vortexed for 15 s every 10 min. After centrifuging for 10 min at 14,000 × g, supernatants were collected and diluted with 300 µl EBC buffer (50 mM Tris-HCl (pH 7.5), 120 mM NaCl, 0.5% NP-40) with protease and phosphatase inhibitors, 2 μM TSA and 10 mM NAM. […] Beads were washed four times with EBC buffer and eluted with 3X Flag peptide (F4799, Sigma-Aldrich) overnight at 4 °C. The input and Flag-elution were analyzed by SDS-PAGE and immunoblot.
Supplementary Figure 2. […]
a. Vectors, Flag-PBRM1 or Myc-p53 were transfected into H1299 cells as indicated, and treated with 5 µM nicotinamide or vehicle. Lysates were used for anti-Flag immunoprecipitation and 3X Flag peptide elution. The inputs and eluates were immunoblotted with the indicated antibodies. […]
Flag-PBRM1, wildtype or K382Q mutated Myc-p53 were transfected into H1299 cells with indicated combinations. Lysates were used for anti-Flagimmunoprecipitation followed by Flag peptide elution. […]

[1] = system: ACHN, Caki-1 and Ren-01 cells; test: Immunoblot of p53 targets, kidney cancer cells with PBRM1 shRNA knockdown; type: cell-based; conditions: 10 μM Nutlin-3a
Experimental: Lysates were analyzed by immunoblots. c RCC4 cells with or without p53 KO were transfected with vector or Flag-PBRM1 at the indicated amounts. […] Cells were harvested for RT-qPCR (g) or ChIP followed by qPCR (h). […] Representative data is shown in i. Quantification of cell cycle phase is shown in j. Source data are provided as a Source Data file.
After washing with ice-cold PBS, cells were scraped on ice and centrifuged at 10,000 × g for 1 min at 4 °C. For immunoblot analysis, cell pellets were lysed in 1% SDS containing a protease inhibitor cocktail followed by sonication with a FB50 sonic dismembrator (Fisher Scientific) at 20% amplitude for 15 s twice. After centrifuging for 10 min at 14,000 × g, the supernatants were combined with 5X SDS loading buffer (5% mercaptoethanol, 0.05% Bromophenol blue, 30% glycerol, 10% SDS, 250 mM Tris-HCl (pH 6.8)), boiled for 5 min and used in SDS-PAGE. After standard western blot procedures, the blots were developed using the ImageQuant LAS 4000 (GE healthcare Life Sciences) or ChemiDoc MP Imaging System (Bio-rad) with HyGLO™ Chemiluminescent HRP Detection Reagent (E2500, Denville Scientific) or Immobilon™ Western Chemiluminescent HRP Substrate (WBKLS0500, Millipore). […]
the indicated times. Lysates were analyzed via immunoblots. b. […]
were analyzed by immunoblots. c. […]
Lysates were analyzed via immunoblots. e. […]
Lysates were analyzed via immunoblots. f, g, h. […]

endogenous PBRM1 = test: Peptide pull-down, endogenous PBRM1 from cell lysates; type: binding; conditions: H1299 lysate, Supplementary Fig. 2e, f
Experimental: Fig. 2 Acetylation on K382 of p53 promotes PBRM1 binding. a Schematic depiction of the functional domains of p53 and truncated constructs. FL full-length, TAD transactivation domain, PRD proline-rich domain, DBD DNA-binding domain, TD tetramerization domain, CTD C-terminal domain. b HEK293T cells were transfected with vectors, Flag-PBRM1, Myc-p53 and Myc-p53 truncated constructs. After immunoprecipitation with Flag-M2 beads, the inputs and eluates were analyzed by immunoblots. c Vectors, Flag-PBRM1, Myc-p53 and HA-Tip60, HA-PCAF, HA-CBP or HA-p300 were transfected into HEK293T cells as indicated. Lysates were used for anti-Flag immunoprecipitation and 3X Flag peptide elution. The inputs and eluates were analyzed by immunoblots. d HEK293T cells were transfected with Flag-PBRM1, Myc-p53 and HA-p300. The amount of HA-p300 was titrated as indicated. Lysates were used in immunoprecipitations with Flag-M2 beads, and inputs and eluates were analyzed by immunoblots. e Vectors, Flag-PBRM1, HA-p300 and Myc-p53 (WT) or Myc-p53 6KR mutant were transfected into HEK293T cells as indicated. Lysates were used for anti-Flag immunoprecipitation and 3X Flag peptide elution. Inputs and eluates were examined by immunoblots. […] The peptides were pulled down with streptavidin beads and the associated proteins were analyzed by immunoblots. […]

BDs of PBRM1 = conditions: shorter peptide, residues 375–388, 14 residues; cited from earlier work
Description: Although acetylation is indispensable for p53′s transcriptional function and SWI/SNF complexes function as transcriptional co-factors, no acetylation-dependent interaction has been reported between p53 and SWI/SNF complexes. In this study, we report that acetylation on p53 lysine 382 enhanced the interaction between PBRM1 and p53 via recognition by PBRM1 BD4. […] The difference is likely due to the length of the peptides used. In our experiments, the p53 peptide used was much longer than theirs (368–393, 26 re ...

NC(=O)c1cccnc1 [Nicotinamide]
PBRM1-p53 interaction (PBRM1-p53 interaction; H1299, 5 µM nicotinamide): enhanced

COc1ccc(C2=N[C@@H](c3ccc(Cl)cc3)[C@@H](c3ccc(Cl)cc3)N2C(=O)N2CCNC(=O)C2)c(OC(C)C)c1 [Nutlin-3a]
p21 induction by p53 with PBRM1 knockdown [1]: reduced

K382Q: Biot-K382Q (368-393) p53 peptide (Biotin-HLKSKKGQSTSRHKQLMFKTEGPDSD; UniProt P04637 368-393, looked up, variant K382Q)
binding to PBRM1 of K382Q peptide (endogenous PBRM1): failed to mimic K382Ac to enhance binding to PBRM1

bleomycin
PBRM1 and exogenous p53 protein levels (PBRM1-p53 interaction; H1299, etoposide 50 μM or bleomycin 10 μg/ml): neither the PBRM1 nor the exogenous p53 levels changed
PBRM1-p53 interaction (PBRM1-p53 interaction; H1299 co-transfected with PBRM1 and p53, bleomycin 10 μg/ml): enhanced

p53 K382Ac peptide (375–388): p53 K382Ac peptide of previous report, 375–388, 14 residues (QSTSRHKK(Ac)LMFKTE; not fully specified; UniProt P04637 375-388, looked up, fragment)
binding of PBRM1 BDs to p53 K382Ac peptide (BDs of PBRM1): did not bind
